# Data from PubChem BioAssay (NCI).
#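 All cell lines were grown in 96-well plates and treated with compound for 48 hours. GI50: concentration for 50% inhibition of growth. TGI marks complete inhibition of growth.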
# Experiments:
# Experiment in all cases: NCI-60 cell line screen, 48 h
# A549 NSCLC = test system: A549 NSCLC
# CCRF-CEM leukemia = test system: CCRF-CEM leukemia
# COLO 205 colon = test system: COLO 205 colon
# HCT-116 colon = test system: HCT-116 colon
# HL-60(TB) leukemia = test system: HL-60(TB) leukemia
# K-562 leukemia = test system: K-562 leukemia
# OVCAR-4 ovarian = test system: OVCAR-4 ovarian
# SK-OV-3 ovarian = test system: SK-OV-3 ovarian
# TK-10 renal = test system: TK-10 renal
# PC-3 prostate = test system: PC-3 prostate
compound,measurement,setting,value
NC(N)=NS(=O)(=O)c1ccc(NC(=O)c2cccn3c(=O)c4ccccc4nc23)cc1,TGI,A549 NSCLC,> 100 µM
same,TGI,CCRF-CEM leukemia,88 µM
same,TGI,COLO 205 colon,34 µM
same,TGI,HCT-116 colon,> 100 µM
same,TGI,HL-60(TB) leukemia,44.9 µM
same,TGI,K-562 leukemia,90.1 µM
same,TGI,OVCAR-4 ovarian,> 100 µM
same,TGI,SK-OV-3 ovarian,> 100 µM
same,TGI,TK-10 renal,> 100 µM
[O-]c1ccccc1[C-]=Nc1ccccc1O.[O-]c1ccccc1[C-]=Nc1ccccc1O.[O]=[U]=[O],GI50,A549 NSCLC,16.2 µM
same,TGI,A549 NSCLC,43.9 µM
same,GI50,CCRF-CEM leukemia,2.6 µM
same,TGI,CCRF-CEM leukemia,44.4 µM
same,GI50,COLO 205 colon,19 µM
same,TGI,COLO 205 colon,51.6 µM
same,GI50,HL-60(TB) leukemia,1.76 µM
same,TGI,HL-60(TB) leukemia,7.47 µM
same,GI50,K-562 leukemia,2.79 µM
same,TGI,K-562 leukemia,> 100 µM
same,GI50,OVCAR-4 ovarian,12.1 µM
same,TGI,OVCAR-4 ovarian,46.8 µM
same,GI50,SK-OV-3 ovarian,43 µM
same,TGI,SK-OV-3 ovarian,71 µM
same,GI50,TK-10 renal,28.9 µM
same,TGI,TK-10 renal,55.5 µM
CN1CCN2c3ccccc3CC(C#N)(C#N)C2C1 (centres undefined),TGI,A549 NSCLC,> 100 µM
same,TGI,CCRF-CEM leukemia,> 100 µM
same,TGI,COLO 205 colon,> 100 µM
same,TGI,HCT-116 colon,> 100 µM
same,TGI,HL-60(TB) leukemia,> 100 µM
same,TGI,K-562 leukemia,> 100 µM
same,TGI,OVCAR-4 ovarian,> 100 µM
same,TGI,SK-OV-3 ovarian,> 100 µM
same,TGI,TK-10 renal,> 100 µM
CC1(OCc2ccccc2)C(=O)N2C1N(C(=O)OCc1ccccc1)CC2(C)C (centres undefined),TGI,A549 NSCLC,> 100 µM
same,TGI,CCRF-CEM leukemia,> 100 µM
same,TGI,COLO 205 colon,> 100 µM
same,TGI,HCT-116 colon,> 100 µM
same,TGI,HL-60(TB) leukemia,90.5 µM
same,TGI,K-562 leukemia,> 100 µM
same,TGI,OVCAR-4 ovarian,> 100 µM
same,TGI,TK-10 renal,> 100 µM
Nc1ncnc2c1ncn2C1OC(CO)CC1O (centres undefined),TGI,A549 NSCLC,> 100 µM
same,TGI,CCRF-CEM leukemia,> 100 µM
same,TGI,COLO 205 colon,> 100 µM
same,TGI,HCT-116 colon,> 100 µM
same,TGI,K-562 leukemia,42.8 µM
same,TGI,OVCAR-4 ovarian,> 100 µM
same,TGI,PC-3 prostate,40.4 µM
same,TGI,SK-OV-3 ovarian,> 100 µM
same,TGI,TK-10 renal,> 100 µM
O=C1C2c3[nH]c4ccccc4c3C3CCC(c4ccccc4)CC3C2C(=O)N1c1ccccc1 (centres undefined),TGI,A549 NSCLC,> 100 µM
same,TGI,CCRF-CEM leukemia,> 100 µM
same,TGI,COLO 205 colon,> 100 µM
same,TGI,HL-60(TB) leukemia,71.1 µM
same,TGI,K-562 leukemia,> 100 µM
same,TGI,OVCAR-4 ovarian,> 100 µM
same,TGI,SK-OV-3 ovarian,> 100 µM
same,TGI,TK-10 renal,> 100 µM
N#CC1=C(c2ccccc2)NN(Cc2ccccc2)C(c2ccc(Cl)cc2)CC1=O (centres undefined),TGI,A549 NSCLC,62.3 µM
same,TGI,CCRF-CEM leukemia,> 100 µM
same,TGI,COLO 205 colon,> 100 µM
same,TGI,HCT-116 colon,48.5 µM
same,TGI,HL-60(TB) leukemia,84.6 µM
same,TGI,OVCAR-4 ovarian,75.9 µM
same,TGI,TK-10 renal,> 100 µM
CN(C)c1ccc(/C=N/NC(=O)CSc2nc3sc4c(c3c(=O)n2-c2ccccc2)CCCCC4)cc1,GI50,A549 NSCLC,4.25 µM
same,TGI,A549 NSCLC,> 100 µM
same,GI50,CCRF-CEM leukemia,5.82 µM
same,TGI,CCRF-CEM leukemia,> 100 µM
same,GI50,COLO 205 colon,4.14 µM
same,TGI,COLO 205 colon,> 100 µM
same,GI50,HCT-116 colon,3.96 µM
same,TGI,HCT-116 colon,> 100 µM
same,GI50,HL-60(TB) leukemia,> 100 µM
same,TGI,HL-60(TB) leukemia,> 100 µM
same,GI50,OVCAR-4 ovarian,2.56 µM
same,TGI,OVCAR-4 ovarian,6.49 µM
same,GI50,SK-OV-3 ovarian,11.3 µM
same,TGI,SK-OV-3 ovarian,51 µM
same,GI50,TK-10 renal,4.16 µM
same,TGI,TK-10 renal,> 100 µM
CC(=O)CC(=O)ON(C)C(C)=O,TGI,A549 NSCLC,> 100 µM
same,TGI,CCRF-CEM leukemia,> 100 µM
same,TGI,COLO 205 colon,> 100 µM
same,TGI,HCT-116 colon,> 100 µM
same,TGI,HL-60(TB) leukemia,> 100 µM
same,TGI,K-562 leukemia,> 100 µM
same,TGI,OVCAR-4 ovarian,89.1 µM
same,TGI,SK-OV-3 ovarian,> 100 µM
same,TGI,TK-10 renal,> 100 µM
CCOC(=O)NC(=O)c1cn(CC(=O)NCC(=O)NCC(=O)N2CCN(CCn3c(C)nc(C(N)=O)c3N)CC2)c(=O)[nH]c1=O,TGI,A549 NSCLC,> 100 µM
same,TGI,CCRF-CEM leukemia,> 100 µM
same,TGI,COLO 205 colon,> 100 µM
same,TGI,HCT-116 colon,> 100 µM
same,TGI,HL-60(TB) leukemia,> 100 µM
same,TGI,K-562 leukemia,> 100 µM
same,TGI,SK-OV-3 ovarian,> 100 µM
same,TGI,TK-10 renal,> 100 µM
Clc1cc2nc[nH]c2cc1Cl,TGI,A549 NSCLC,> 100 µM
same,TGI,CCRF-CEM leukemia,> 100 µM
same,TGI,COLO 205 colon,> 100 µM
same,TGI,HL-60(TB) leukemia,> 100 µM
same,TGI,K-562 leukemia,> 100 µM
same,TGI,OVCAR-4 ovarian,> 100 µM
same,TGI,SK-OV-3 ovarian,> 100 µM
same,TGI,TK-10 renal,> 100 µM
COc1ccc(-c2cc(=O)c3c(OC)c(O)c(OC)cc3o2)cc1,TGI,A549 NSCLC,> 100 µM
same,TGI,CCRF-CEM leukemia,> 100 µM
same,TGI,COLO 205 colon,> 100 µM
same,TGI,HCT-116 colon,> 100 µM
same,TGI,HL-60(TB) leukemia,> 100 µM
same,TGI,K-562 leukemia,> 100 µM
same,TGI,OVCAR-4 ovarian,> 100 µM
same,TGI,SK-OV-3 ovarian,> 100 µM
same,TGI,TK-10 renal,94 µM
COc1ccc(C(=C(C#N)C#N)c2ccc(OC)cc2)cc1,TGI,A549 NSCLC,> 100 µM
same,TGI,CCRF-CEM leukemia,> 100 µM
same,TGI,COLO 205 colon,> 100 µM
same,TGI,HCT-116 colon,> 100 µM
same,TGI,HL-60(TB) leukemia,> 100 µM
same,TGI,K-562 leukemia,> 100 µM
same,TGI,OVCAR-4 ovarian,> 100 µM
same,TGI,TK-10 renal,> 100 µM
OCC(O)C(O)C(O)c1nn[nH]n1 (centres undefined),TGI,CCRF-CEM leukemia,> 100 µM
same,TGI,COLO 205 colon,> 100 µM
same,TGI,HCT-116 colon,> 100 µM
same,TGI,HL-60(TB) leukemia,> 100 µM
same,TGI,K-562 leukemia,> 100 µM
same,TGI,OVCAR-4 ovarian,> 100 µM
same,TGI,SK-OV-3 ovarian,> 100 µM
CC12CCC(=O)N1c1cc([N+](=O)[O-])ccc1N2 (centres undefined),TGI,A549 NSCLC,> 100 µM
same,TGI,CCRF-CEM leukemia,> 100 µM
same,TGI,COLO 205 colon,> 100 µM
same,TGI,HCT-116 colon,> 100 µM
same,TGI,HL-60(TB) leukemia,> 100 µM
same,TGI,K-562 leukemia,> 100 µM
same,TGI,OVCAR-4 ovarian,> 100 µM
same,TGI,SK-OV-3 ovarian,> 100 µM
Clc1cc(Cl)cc(C2SCc3nc4ccccc4n32)c1 (centres undefined),TGI,A549 NSCLC,76.1 µM
same,TGI,CCRF-CEM leukemia,70.6 µM
same,TGI,COLO 205 colon,33.9 µM
same,TGI,HL-60(TB) leukemia,53.4 µM
same,TGI,K-562 leukemia,25.2 µM
same,TGI,SK-OV-3 ovarian,63.8 µM
same,TGI,TK-10 renal,70.2 µM
C/C(=N\NC(=O)C[n+]1ccccc1)c1sc(-c2nc(C)c(/C(C)=N/NC(=O)C[n+]3ccccc3)s2)nc1C,TGI,A549 NSCLC,> 100 µM
same,TGI,COLO 205 colon,> 100 µM
same,TGI,HCT-116 colon,> 100 µM
same,TGI,K-562 leukemia,> 100 µM
same,TGI,SK-OV-3 ovarian,> 100 µM
same,TGI,TK-10 renal,> 100 µM
CN(C)C(=O)C(NCCO)c1ccccc1 (centres undefined),TGI,A549 NSCLC,> 100 µM
same,TGI,COLO 205 colon,> 100 µM
same,TGI,HCT-116 colon,> 100 µM
same,TGI,OVCAR-4 ovarian,> 100 µM
same,TGI,PC-3 prostate,> 100 µM
same,TGI,SK-OV-3 ovarian,> 100 µM
same,TGI,TK-10 renal,> 100 µM
O=C1C[C@@H]2[C@@H](C=CC23CC3)N1O,TGI,A549 NSCLC,> 100 µM
same,TGI,CCRF-CEM leukemia,> 100 µM
same,TGI,COLO 205 colon,> 100 µM
same,TGI,HCT-116 colon,> 100 µM
same,TGI,HL-60(TB) leukemia,> 100 µM
same,TGI,K-562 leukemia,> 100 µM
same,TGI,OVCAR-4 ovarian,> 100 µM
same,TGI,SK-OV-3 ovarian,> 100 µM
same,TGI,TK-10 renal,> 100 µM
Cc1cc(Cl)ccc1NC(=O)C1C(=O)C(=O)N(c2ccc(Cl)cc2C)C1=O (centres undefined),TGI,A549 NSCLC,> 100 µM
same,TGI,CCRF-CEM leukemia,> 100 µM
same,TGI,COLO 205 colon,> 100 µM
same,TGI,HCT-116 colon,> 100 µM
same,TGI,HL-60(TB) leukemia,> 100 µM
same,TGI,K-562 leukemia,> 100 µM
same,TGI,OVCAR-4 ovarian,> 100 µM
same,TGI,SK-OV-3 ovarian,> 100 µM
same,TGI,TK-10 renal,> 100 µM
CCN1C(=O)/C(=C\c2coc3ccccc3c2=O)SC1=S,TGI,A549 NSCLC,> 100 µM
same,TGI,CCRF-CEM leukemia,> 100 µM
same,TGI,COLO 205 colon,> 100 µM
same,TGI,HCT-116 colon,> 100 µM
same,TGI,HL-60(TB) leukemia,> 100 µM
same,TGI,K-562 leukemia,> 100 µM
same,TGI,OVCAR-4 ovarian,> 100 µM
same,TGI,SK-OV-3 ovarian,> 100 µM
same,TGI,TK-10 renal,> 100 µM
COc1cccc(-c2cc(C(=O)Nc3ccc(Cl)cc3)nc(N)n2)c1,TGI,A549 NSCLC,> 100 µM
same,TGI,CCRF-CEM leukemia,> 100 µM
same,TGI,COLO 205 colon,71.4 µM
same,TGI,HCT-116 colon,> 100 µM
same,TGI,HL-60(TB) leukemia,> 100 µM
same,TGI,K-562 leukemia,> 100 µM
same,TGI,OVCAR-4 ovarian,> 100 µM
same,TGI,SK-OV-3 ovarian,> 100 µM
same,TGI,TK-10 renal,> 100 µM
CC(=O)O[C@H]1CC[C@@]2(C)C(=CC[C@@H]3C2CC[C@]2(C)C(=O)NC(=O)CC32)C1 (some centres undefined),TGI,A549 NSCLC,> 100 µM
same,TGI,CCRF-CEM leukemia,> 100 µM
same,TGI,COLO 205 colon,> 100 µM
same,TGI,HCT-116 colon,> 100 µM
same,TGI,HL-60(TB) leukemia,> 100 µM
same,TGI,K-562 leukemia,> 100 µM
same,TGI,OVCAR-4 ovarian,> 100 µM
same,TGI,SK-OV-3 ovarian,> 100 µM
same,TGI,TK-10 renal,> 100 µM
